Test results reported in patent USRE39681E1, “1-(4-sulfamyaryl)-3-substituted-5-aryl-2-pyrazolines and inhibitors of cyclooxygenase-2” (Temple University - of the Commonwealth System of Higher …, priority 1999, dated 2007).

Tests used:
DLD-1 cells = assay: Soft agar assay, colony growth; assay type: cell-based, human; conditions: highest concentration tested (range 10 μM to 75 μM), one dose, stained 20 days later, FIG. 1
Protocol: The Example 1 and 24 compounds were compared to the COX-2 inhibitor celecoxib in inhibiting the growth of DLD-1 cells in soft agar. DLD-1 cells are human colorectal carcinoma cells that overexpress COX-2. DLD-1 cells grow in soft agar and form tumors in nude mice. The soft agar assay was performed as follows. A layer of bottom agar ([…]) was placed onto 60 mm^2 tissue culture dishes. The tumor cells were trypsinized from normal growth flasks while in exponential growth. The cells were counted by using a hemacytometer and 1.0×10^5 cells were placed into the top agar mixture containing growth medium, 4% noble agar and various concentrations of drugs. The concentration range was normally between 10 μM to 75 μM. The cells were not refed during the assay system; therefore, the cells were treated with one dose of the agents. The plates were stained 20 days later with a 0.05% (w/v) nitroblue tetrazolium solution (which stains only viable cells) for 48 hours. The results are shown in FIG. 1, the y-axis being the percent of cell colonies remaining in comparison to untreated control cells.

[1] = Cyclooxygenase enzyme assay (TLC method), COX-1; assay type: biochemical, ovine; conditions: second column headed COX-2; preincubation 90-120 min, [1-14C] arachidonic acid 50 μM; read-out: Inhibition of Cyclooxygenase Activity IC50 COX-2
Protocol: Cyclooxygenase activity of ovine COX-1 (Oxford Biomedical Research Inc.) and human recombinant COX-2 (Oxford Biomedical Research Inc.) was assayed by a thin layer chromatography (TLC) method as follows. All inhibitors were dissolved in dimethyl sulfoxide to a stock solution of 5mM. Human recombinant COX-2 (3 units) or ovine COX-1 (15 units) was incubated with inhibitors at several concentrations in a solution containing 100 mM Tris-HCl, pH7.8, 500 μM phenol and hematin for 90 to 120 minutes at room temperature (24° C.). In controls, equal volumes of DMSO without drug were added to the incubation mixture. After incubation for 90-120 minutes, [1-^14C] arachidonic acid (50 μM, 51 mCi/mmol) (DuPont NEN) was added and incubated at 37° C. for 2 minutes. The reaction was terminated by extraction with 1 ml of ethyl acetate. The ethyl acetate layer was transferred into a fresh tube and evaporated to dryness in a Speedvac vacuum dryer. The contents of the tubes were reconstituted in […] of ethyl acetate and spotted on a TLC plate (J. T. Baker, Philipsburg, N.J.) and developed in a mobile phase containing chloroform/methanol (95:5) at 4° C. Radiolabeled prostanoid compounds (the products of COX enzymatic reaction with radiolabeled arachidonic acid substrate) were quantitated with a radioactivity scanner (Fuji, Phosphorimager). […]

Row | IC50 [1] [µM] | Compound | inhibition of DLD-1 cell colony growth in soft agar (DLD-1 cells) [%]
1 | < 100 | NS(=O)(=O)c1ccc(N2N=C(C(F)(F)F)CC2c2ccccc2)cc1 (stereo not shown) [Example 1, 1-(4-Sulfamylphenyl)-3-trifluoromethyl-5-phenyl-2-pyrazoline] | 100
2 | < 100 | NS(=O)(=O)c1ccc(N2N=C(C(F)(F)F)CC2c2c[nH]c3ccccc23)cc1 (stereo not shown) [Example 24, 1-(4-Sulfamylphenyl)-3-trifluoromethyl-5-(3-indolyl)-2-pyrazoline] | 100
